Measurements from patent US12168651B1, “9-(6-flouro-2-hydroxypyridin-3-yl)-10-(2-hydroxyethyl)-3,6-diphenyl-3,4,6,7,9,10-hexahydroacridine1,8(2H,5H)-dione as an antimicrobial compound” (KING FAISAL UNIVERSITY, priority 2023, dated 2024).

Columns and labels:
Type in all cases: cell-based
Conditions in all cases: after 10, 20, 40 and 60 minutes at all dilutions 1:100, 1:200, 1:400, 1:800
[1] = system: Staphylococcus aureus; experiment: Antimicrobial screening by agar dilution, St. Aereus
Experimental: (§1) The antibacterial properties of the synthesized compound (9-(6-flouro-2-hydroxypyridin-3-yl)-10-(2-hydroxyethyl)-3,6-diphenyl-3,4,6,7,9,10-hexahydroacridine1,8(2H,5H)-dione) were studied by the method of agar dilution. Test solutions of each compound was prepared in concentration of 1% using dimethylformamide as a solvent then they are diluted in physiological solution to obtain the final experimental dilutions 1:100, 1:200, 1:400, 1:800. The effect of these substances are compared with furacillin in a controllable study. The testing microbes used were gram positive bacteria Staphylococcus aureus, gram negative bacteria Pseudomonas aeruginosa and Escherichia coli and Candida albicans fungus. The experiments used for this survey were meat-pentonlu agar (EPA) for cultivation of bacteria and Saburo environment for the fungus. Each experiment used 1 mL of test solution on each plate […]. Two drops of emulsified with microbes feel were added. All experimental samples were taken from the agar after 10, 20, 40, 60 minutes in the environment on the basis of Patrk planted. The bacteria were cultivated at a temperature of 37° C. for 1 day and the mushroom was kept in a thermostat for […] at a temperature of 28° C. Then results were checked.

[2] = system: Escherichia coli; experiment: Antimicrobial screening by agar dilution, E. Coli
Experimental: as §1

[3] = system: Pseudomonas aeruginosa; experiment: Antimicrobial screening by agar dilution, Ps. Aeroqonaza
Experimental: as §1

[4] = system: Candida albicans; experiment: Antimicrobial screening by agar dilution, Candida albicans
Experimental: as §1

Measured: inhibition activity (in words)

O=C1CC(c2ccccc2)CC2=C1C(c1cc3cc(F)ccc3nc1O)C1=C(CC(c3ccccc3)CC1=O)N2CCO (stereo not shown)
the most higher inhibition activity: all assays above
